# Measurements: US8748395B2, “Cell-permeable peptide inhibitors of the JNK signal transduction pathway” (Xigen Inflammation Ltd., priority 2006, dated 2014)
# Square brackets hold non-standard residues; d marks the D form. Peptide text beside a SMILES is read from it.
# Experiments:
# [1] = tested on: βTC-3 cells; assay: Inhibition of IL-1β induced pancreatic β-cell death by TAT-IB peptides; type: cell-based; details: one single addition of peptide 1 μM, IL-1β every two days, 15 days
# Procedure: We investigated the effects of the inventive L-TAT-IB(s) peptides on the promotion of β-cell apoptosis elicited by IL-1. PTC-3 cell cultures were incubated for 30 minutes with 1 μM of inventive L-TAT-IB1(s) peptides followed by 10 ng/mL of IL-1. A second addition of peptide (1 μM) was performed 24 hours later. Apoptotic cells were counted after two days of incubation with IL-1β using propidium iodide (red stained cell are dead cells) and Hoechst 33342 (blue stained cell are cells with intact plasma membrane) nuclear staining.
# Long term inhibition of IL-1 induced cells death was examined by treating βTC-3 cells as described above, except that incubation of the cells with the peptides and IL-1β was sustained for 12 days. Additional peptides (1 μM) were added each day and additional IL-1β (10 ng/mL) was added every 2 days. […] Taken together, these experiments provide evidence that inventive TAT-IB(s) peptides are biologically active molecules able to prevent the effects of JNK signaling on cell fate.
# Inhibition of IL-1β induced pancreatic β-cell death by the inventive D-TAT-IB1(s) peptide was analyzed. βTC-3 cells were incubated as described above for 30 minutes with one single addition of the indicated peptides (1, μM), then IL-1 (10 ng/ml) was added.
# Apoptotic cells were then counted after two days of incubation with IL-1β by use of Propidium Iodide and Hoechst 33342 nuclear staining. A minimum of 1,000 cells were counted for each experiment. Standard Error of the Means (SEM) are indicated, n=5.
# Long term inhibition of IL-1P induced cell-death by the D-TAT-IB1 peptide was also analyzed. βTC-3 cells were incubated as above for 30 minutes with one single addition of the indicated peptides (1 μM), then IL-1β (10 ng/ml) was added, followed by addition of the cytokine every two days. Apoptotic cells were then counted after 15 days of incubation with IL-1 by use of propidium iodide and Hoechst 33342 nuclear staining. […] A minimum of 1.000 cells were counted for each experiment.
# [2] = tested on: endogenous JNK activity in HepG2 cells; assay: Inhibition of endogenous JNK activity in HepG2 cells, AlphaScreen all-in one well approach; type: cell-based
# Procedure: HepG2 cells were seeded at 3'000 cells/well the day prior the experiment. Then, increasing concentrations of either interleukin-1β [IL-1β(ν)] or tumor necrosis factor α [TNFα(●)] (a) were added to activate JNK for 30 minutes. Cells were lysed in 20 mM Hepes, 0.5% Tween pH 7.4 and processed for AlphaScreen JNK. (b) Z′ for the JNK activity induced by 10 ng/ml IL-1β and measured in 384 wells/plate (n=96). (c) Inhibition of endogenous IL-1β-induced JNK activity with chemical JNK inhibitors [staurosporin (°) and SP600125 (●)]. (d) Effect of peptidic inhibitors L-TAT-IB1(s) according to SEQ ID NO: 9 [here abbreviated as L-JNKi (ν)) and D-TAT-IB1(s) according to SEQ ID NO: 11 (here abbreviated as D-JNKi (♦)) and JBDs (●) (corresponds to L-JNKI without the TAT sequence)] on IL-1α dependent JNK activity. All panels are representative of three independent experiments (n=3).
# Methods: Alphascreen Kinase Assay
# Principle: AlphaScreen is a non-radioactive bead-based technology used to study biomolecular interactions in a microplate format. The acronym ALPHA stands for Amplified Luminescence Proximity Homogenous Assay. […]
# Kinase reagents (B-GST-cJun, anti P-cJun antibody and active JNK3) were first diluted in kinase buffer (20 mM Tris-HCl pH 7.6, 10 mM MgCl2, 1 mM DTT, 100 μM Na3VO4, 0.01% Tween-20) and added to wells (15 μl). […] AlphaScreen signal was analyzed directly on the Fusion or En Vision apparatus.
# [3] = tested on: cortical neuronal culture; assay: LDH release from cortical neuronal cultures following NMDA stimulation; type: cell-based, rat; details: 5 μM peptide, 30 min pre-treatment, 12 h of 100 μM NMDA
# Procedure: The neuroprotective effect of the D-TAT-IB (generic)(s)/D-JNKI1 peptide (SEQ ID NO: 12) was evaluated in sister cultures pre-treated for 30 min with the indicated concentrations of peptides or MK-801 before continuous exposure to 100 μM NMDA.
# Cortical neuronal culture. We dissected small pieces of cortex from the brains of two day old rat pups, incubated them with 200 units of papain for 30 min at 34° C., and then plated the neurons at densities of approximately 1×10^6 cells/plate on dishes pre-coated with 100 μg/ml poly-D-lysine. The plating medium consisted of B27/Neurobasal (Life Technologies, Gaithersburg, Md.) supplemented with 0.5 mM glutamine, 100 U/ml penicillin and 100 ug/ml streptomycin.
# Lactate dehydrogenate (LDH) cytotoxicity assay. LDH released into the bathing medium 12, 24 and 48 h after NMDA administration was measured using the Cytotox 96 non- radioactive cytotoxicity assay kit (PROMEGA®, WI) (see FIG. 5).
compound,measurement,setting,value
CC(C)C[C@@H](NC(=O)[C@@H](Cc1ccccc1)NC(=O)[C@H]1CCCN1C(=O)[C@@H](CCC(N)=O)NC(=O)[C@H](NC(=O)[C@H]1CCCN1C(=O)[C@@H](CCCNC(=N)N)NC(=O)[C@@H](CO)NC(=O)[C@@H](CCC(N)=O)NC(=O)[C@H](N)CC(=O)O)C(C)C)C(=O)N[C@H](CC(N)=O)C(=O)N[C@H](CC(C)C)C(=O)N[C@@H](C(=O)N[C@@H](C(=O)N1CCC[C@@H]1C(=O)N[C@H](CCCNC(=N)N)C(=O)N[C@H](CCCCN)C(=O)N1CCC[C@@H]1C(=O)N[C@H](CCCNC(=N)N)C(=O)N1CCC[C@@H]1C(=O)N1CCC[C@@H]1C(=O)N[C@H](CCCNC(=N)N)C(=O)N[C@H](CCCNC(=N)N)C(=O)N[C@H](CCCNC(=N)N)C(=O)N[C@H](CCC(N)=O)C(=O)N[C@H](CCCNC(=N)N)C(=O)N[C@H](CCCNC(=N)N)C(=O)N[C@H](CCCCN)C(=O)N[C@H](CCCCN)C(=O)N[C@H](CCCNC(=N)N)C(=O)NCC(=O)O)[C@H](C)O)[C@H](C)O [D-TAT-IB1(s)] (H-[dD][dQ][dS][dR][dP][dV][dQ][dP][dF][dL][dN][dL][dT][dT][dP][dR][dK][dP][dR][dP][dP][dR][dR][dR][dQ][dR][dR][dK][dK][dR]G-OH),long term (15 day) protection against IL-1β induced cell death,[1],able to confer long term (15 day) protection
same,inhibition of IL-1β-induced endogenous JNK activity,[2],"effectively inhibits JNK activity, even better than L-TAT-IB1(s)"
same,degenerative changes due to NMDA exposure (LDH release above controls),[3],degenerative changes due to NMDA exposure were completely inhibited
